Settings: mouse, in vivo

Substance: Fe3O4
- half-life in blood: prolonged

From patent US9169355B2, “Biocompatible agent for dispersing nanoparticles into an aqueous medium using mussel adhesive protein-mimetic polymer” (Hanwha Chemical Corporation, priority 2010, dated 2015)
